The source of these data is patent US9987256B2, “CFTR corrector for the treatment of genetic disorders affecting striated muscle” (UNIVERSITA' DEGLI STUDI DI PADOVA, priority 2012, dated 2018).

The target in assay [1] is T1, R164H mutant of SERCA1 (Bos taurus, UniProt Q0VCY0, R164H).
T1 construct: expressed in transfected cells; host or cells: HEK 293
In words: Western blot rescue of R164H mutant of SERCA1 in HEK293 cells. The class given is cell-based, bovine. The settings on record: HEK293, 24 hours, relative to wild type. Here is the method: In FIG. 3 are reported the results obtained with HEK 293 cells expressing the R164H mutant of SERCA1 treated for 24 hours with either Compound C 5 μM, Compound B 10 μM, Compound E 10 μM, compound F 10 μM, Compound A 2 μM, compound D 10 μM, MG132 (proteasome inhibitor) 10 μM, used as positive control or the vehicle DMSO at 1‰ concentration, used as negative control. At the end of treatments, cells were lysed and total protein resolved by SDS-PAGE. Western blotting analysis has been performed by using SERCA1 specific antibody and β-actin specific antibody, to normalize loaded proteins. In the upper panel of FIG. 3 is reported a representative Western blotting experiment. The expression of SERCA1 in different samples has been determined by densitometric analysis and indicated as percentage of SERCA 1 content present in wild type expressing cells treated with DMSO.
In FIG. 10 is reported the content of SERCA1 protein present in HEK 293 cells transfected with the R164H mutant of SERCA1 and treated for 24 hours with either Compound H 15 μM, Compound I 10 μM, compound Q 10 μM, Compound R 5 μM, Compound S 15 μM, Compound T 15 μM or the vehicle DMSO at 1‰ concentration, used as negative control. Cells expressing the wild type form of SERCA1 have also been used for comparison. At the end of treatments, cells were lysed and total protein resolved by SDS-PAGE. Western blotting analysis has been performed by using SERCA1 specific antibody and β-actin specific antibody, to normalize loaded proteins. The expression of SERCA1 in different samples has been determined by densitometric analysis and indicated as percentage of SERCA 1 content present in wild type expressing cells. The graph of FIG. 10 reports the average values (+/− standard error) of at least three independent experiments.
(In western blotting, separated proteins are transferred to a membrane and probed.)

In assay [2] the target is T2, D97G mutant of alpha-sarcoglycan (Homo sapiens, UniProt Q16586, D97G).
T2 construct: expressed in transfected cells; host or cells: HEK293
T2 sequence (Q16586 24-387 D97G): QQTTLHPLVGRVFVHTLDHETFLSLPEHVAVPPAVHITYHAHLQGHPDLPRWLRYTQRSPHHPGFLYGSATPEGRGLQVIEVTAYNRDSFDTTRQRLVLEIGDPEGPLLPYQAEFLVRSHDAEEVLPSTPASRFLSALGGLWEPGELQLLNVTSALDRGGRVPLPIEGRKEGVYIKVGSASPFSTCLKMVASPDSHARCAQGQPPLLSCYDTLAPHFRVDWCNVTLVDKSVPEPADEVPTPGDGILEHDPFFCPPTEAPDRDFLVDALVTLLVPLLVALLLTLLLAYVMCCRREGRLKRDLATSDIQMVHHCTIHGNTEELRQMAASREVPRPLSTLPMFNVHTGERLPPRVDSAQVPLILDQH
In words: Western blot rescue of D97G mutant of alpha-sarcoglycan in HEK293 cell model. The class given is cell-based. Particulars: FIG. 7; HEK293, 24 hours; E 10 μM, H 15 μM, I 10 μM, Q 10 μM, F 10 μM, R 5 μM, S 15 μM, T 15 μM, A 2 μM; relative to wild type. The method, then: HEK293 cells expressing different α-SG mutants have been treated with the Compounds A, B, C, D, E, F, H, I, Q, R, S and T according to protocols developed in CF studies [Loo and Clarke 2011; Becq et al 2011, Pedemonte et al 2005; Wang et al 2006]. Concentration and time-dependent recovery of treated mutants have been evaluated by Western blotting. The proteasome inhibitor MG132, at the concentration of 10 μM, or DMSO at 1‰ concentration, have been used as positive and negative control, respectively.
In FIG. 7 is shown the content of α-sarcoglycan protein present in HEK cells transfected with the D97G mutant of α-SG treated for 24 hours with either Compound E 10 μM, Compound H 15 μM, Compound I 10 μM, Compound Q 10 μM, Compound F 10 μM, Compound R 5 μM, Compound S 15 μM, Compound T 15 μM, Compound A 2 μM, or DMSO at 1‰ concentration, used as negative control, are shown. Cells expressing the wild type form of α-sarcoglycan have been used for comparison. At the end of treatments, cells were lysed and total proteins resolved by SDS-PAGE. Western blotting has been performed by using α-SG specific antibody and β-actin specific antibody, used to normalize loaded proteins. The expression of α-SG in different samples has been determined by densitometric analysis of western blotting experiments and indicated as percentage of the protein present in cells expressing the wild type form of α-sarcoglycan. […] The compounds tested induce the recovery of the D97G mutant that in some cases reached the level present in HEK cells expressing the wild type protein.

The mark [3] stands for this setting: FIG. 3, C 5 μM, B 10 μM, E 10 μM, F 10 μM, A 2 μM, D 10 μM.
The mark [4] stands for this setting: FIG. 10, H 15 μM, I 10 μM, Q 10 μM, R 5 μM, S 15 μM, T 15 μM.

T1 sequence (Q0VCY0 whole entry R164H): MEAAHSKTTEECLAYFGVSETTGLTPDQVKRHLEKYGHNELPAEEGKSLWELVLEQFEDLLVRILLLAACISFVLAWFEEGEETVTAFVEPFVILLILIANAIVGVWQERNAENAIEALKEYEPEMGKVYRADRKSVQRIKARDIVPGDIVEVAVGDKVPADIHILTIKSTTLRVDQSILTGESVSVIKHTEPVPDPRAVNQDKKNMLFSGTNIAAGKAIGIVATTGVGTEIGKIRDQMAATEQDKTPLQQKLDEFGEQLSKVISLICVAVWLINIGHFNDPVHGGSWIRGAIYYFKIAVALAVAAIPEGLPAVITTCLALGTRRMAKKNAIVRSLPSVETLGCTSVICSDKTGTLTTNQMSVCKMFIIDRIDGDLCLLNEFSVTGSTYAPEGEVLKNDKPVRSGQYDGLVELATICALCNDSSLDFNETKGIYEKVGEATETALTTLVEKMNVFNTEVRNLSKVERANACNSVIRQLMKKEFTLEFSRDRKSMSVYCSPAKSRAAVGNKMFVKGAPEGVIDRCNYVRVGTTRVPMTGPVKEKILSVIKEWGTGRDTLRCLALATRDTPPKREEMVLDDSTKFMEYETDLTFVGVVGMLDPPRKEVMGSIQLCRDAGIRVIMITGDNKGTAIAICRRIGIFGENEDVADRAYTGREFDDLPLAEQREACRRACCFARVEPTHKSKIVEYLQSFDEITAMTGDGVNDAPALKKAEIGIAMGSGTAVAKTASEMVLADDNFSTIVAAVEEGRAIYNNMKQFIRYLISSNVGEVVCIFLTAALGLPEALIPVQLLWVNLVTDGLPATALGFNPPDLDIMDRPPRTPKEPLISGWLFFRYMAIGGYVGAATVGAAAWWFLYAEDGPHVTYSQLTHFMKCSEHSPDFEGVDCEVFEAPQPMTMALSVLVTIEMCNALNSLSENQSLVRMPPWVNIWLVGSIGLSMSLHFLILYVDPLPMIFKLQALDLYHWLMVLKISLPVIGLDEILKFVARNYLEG

For `O=S(=O)(c1ccc(Cl)cc1)N1CCN(c2ccnc3cc(Cl)ccc23)CC1` [Compound F, 7-chloro-4-(4-(4-chlorophenylsulfonyl)piperazin-1-yl)quinoline], the “SERCA1 protein level (western blot, densitometry), rescue of R164H mutant” value (“SERCA1 protein level” for short) in assay [1] (setting [3]) was “promote the rescue”. The “alpha-sarcoglycan protein level (western blot, densitometry), rescue of D97G mutant” value (shortened to “alpha-sarcoglycan protein level”) in assay [2] is recorded as “promote the rescue”.

Regarding `COc1ccc(Cl)cc1Nc1nc(-c2sc(NC(=O)C(C)(C)C)nc2C)cs1` [Compound A, N-(2-(5-chloro-2-methoxyphenylamino)-4′-methyl-4,5′-bithiazol-2′-yl)pivalamide], the “SERCA1 protein level” value in assay [1] (setting [3]) is “promote the rescue”. Moreover, in assay [2], the “alpha-sarcoglycan protein level” value is “promote the rescue”.

Take `CC(=O)c1cccc(Nc2nc(-c3sc(NC(=O)c4ccccc4)nc3C)cs2)c1` [Compound Q, N-(2-(3-acetylphenylamino)-4′-methyl-4,5′-bithiazol-2′-yl)-benzamide]: the “SERCA1 protein level” value in assay [1] (setting [4]) is “promote the rescue”. Besides, the “alpha-sarcoglycan protein level” value in assay [2] is “promote the rescue”.

Take `COc1ccc2nc(Nc3nc(=O)c(C)c(C)[nH]3)nc(C)c2c1` [Compound T, 2-(6-methoxy-4-methylquinazolin-2-ylamino)-5,6-dimethylpyrimidin-4(1H)-one]: in assay [1] (setting [4]), the “SERCA1 protein level” value is given as “promote the rescue”. Besides, the “alpha-sarcoglycan protein level” value in assay [2] is listed as “promote the rescue”.

In the case of `COc1ccc(Cl)cc1Nc1nc(-c2sc(NC(=O)c3ccccc3)nc2C)cs1` [Compound E, N-[2-(5-Chloro-2-methoxy-phenylamino)-4′-methyl-[4,5′]bithiazolyl-2′-yl]-benzamide], in assay [1] (setting [3]), the “SERCA1 protein level” value was “promote the rescue”. In assay [2], the “alpha-sarcoglycan protein level” value is recorded as “promote the rescue”.

With `COc1ccccc1Nc1nc(-c2sc(NC(=O)c3ccccc3)nc2C)cs1` [Compound R, N-(2-(2-methoxyphenylamino)-4′-methyl-4,5′-bithiazol-2′-yl)-benzamide], in assay [1] (setting [4]), the “SERCA1 protein level” value is “promote the rescue”. For the same molecule, the “alpha-sarcoglycan protein level” value in assay [2] is listed as “promote the rescue”.

Consider `Cc1cc(C)c2c(C)cc(Nc3ccccc3)nc2c1` [Compound H, 4,5,7-trimethyl-N-phenylquinolin-2-amine], for which, in assay [1] (setting [4]), the “SERCA1 protein level” value is “promote the rescue”. Also, the “alpha-sarcoglycan protein level” value in assay [2] is “promote the rescue”.

Consider `Cc1cc(Nc2ccc(Br)cc2)nc2ccccc12` [Compound I, N-(4-bromophenyl)-4-methylquinolin-2-amine], for which the “SERCA1 protein level” value in assay [1] (setting [4]) is on record as “promote the rescue”. In assay [2], the “alpha-sarcoglycan protein level” value is “promote the rescue”.

In the case of `C=Cc1ccc(-c2csc(Nc3ccccc3)n2)cc1` [Compound S, N-phenyl-4-(4-vinylphenyl)thiazol-2-amine], the “SERCA1 protein level” value in assay [1] (setting [4]) is “promote the rescue”. The “alpha-sarcoglycan protein level” value in assay [2] was “promote the rescue”.
